According to ChEMBL document CHEMBL1201862, “PubChem BioAssay data set” (2004):
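48-hour exposure; five concentrations; linearly interpolated endpoints. GI50: concentration for 50% inhibition of growth.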 Calls of active or inactive are those of the source. Rule as the data show it: active = GI50 up to about 1.1 µM and inactive = higher.

Assays:
Assay in all cases: growth of human tumour cells (NCI), 48 h
786-0 = system: 786-0
SW-620 = system: SW-620
NCI/ADR-RES = system: NCI/ADR-RES
SF-295 = system: SF-295
ACHN = system: ACHN
SK-MEL-28 = system: SK-MEL-28
NCI-H522 = system: NCI-H522
OVCAR-8 = system: OVCAR-8
CCRF-CEM = system: CCRF-CEM
Hs-578T = system: Hs-578T
NCI-H460 = system: NCI-H460
DU-145 = system: DU-145
RXF 393 = system: RXF 393
HOP-62 = system: HOP-62
HT-29 = system: HT-29
OVCAR-4 = system: OVCAR-4
OVCAR-5 = system: OVCAR-5
MDA-N = system: MDA-N
Malme-3M = system: Malme-3M

Measured: GI50

O=C(CC(=O)N1N=C(N2c3ccccc3Sc3ccccc32)CC1c1ccccc1)Nc1ccccc1Cl (configuration not stated)
inactive: 786-0 > 100 µM | SW-620 > 100 µM | NCI/ADR-RES > 100 µM | SF-295 > 100 µM | ACHN > 100 µM | SK-MEL-28 > 100 µM | NCI-H522 > 100 µM | OVCAR-8 > 100 µM | CCRF-CEM > 100 µM | Hs-578T > 100 µM | NCI-H460 > 100 µM | DU-145 > 100 µM | RXF 393 > 100 µM | HOP-62 > 100 µM | HT-29 > 100 µM | OVCAR-4 > 100 µM | OVCAR-5 > 100 µM

COc1nc2c(c(=O)n1C)N=C(c1ccc(Cl)cc1)CC(c1ccccc1)N2 (configuration not stated)
inactive: 786-0 33.8 µM | SW-620 46.3 µM | NCI/ADR-RES 22.2 µM | SF-295 18.8 µM | ACHN 20.9 µM | SK-MEL-28 54.1 µM | NCI-H522 17.9 µM | OVCAR-8 26.8 µM | CCRF-CEM 27.7 µM | MDA-N 18.8 µM | NCI-H460 14.4 µM | DU-145 33.3 µM | RXF 393 22.5 µM | HOP-62 32.1 µM | HT-29 18.7 µM | OVCAR-4 13.3 µM | OVCAR-5 25.6 µM

N#Cc1ccc(/C=N/NC(=O)CSCC(=O)N/N=C/c2ccc(C#N)cc2)cc1
inactive: 786-0 > 100 µM | SW-620 > 100 µM | NCI/ADR-RES > 100 µM | SF-295 > 100 µM | ACHN > 100 µM | SK-MEL-28 > 100 µM | NCI-H522 > 100 µM | OVCAR-8 53.1 µM | Hs-578T > 100 µM | Malme-3M > 100 µM | NCI-H460 > 100 µM | DU-145 > 100 µM | RXF 393 > 100 µM | HOP-62 > 100 µM | HT-29 > 100 µM | OVCAR-4 > 100 µM | OVCAR-5 > 100 µM

O=C1NCCS(=O)(=O)N2CCC[C@@H]12
inactive: 786-0 > 100 µM | SW-620 > 100 µM | SF-295 > 100 µM | ACHN > 100 µM | SK-MEL-28 > 100 µM | NCI-H522 > 100 µM | OVCAR-8 > 100 µM | CCRF-CEM > 100 µM | Malme-3M > 100 µM | NCI-H460 > 100 µM | RXF 393 > 100 µM | HOP-62 > 100 µM | HT-29 > 100 µM | OVCAR-4 > 100 µM | OVCAR-5 > 100 µM

CC(C)=C[C@H]1CCC2(OCCO2)[C@]1(C)COCc1ccccc1
inactive: 786-0 31 µM | SW-620 29.1 µM | NCI/ADR-RES 36.8 µM | SF-295 40 µM | ACHN 34.4 µM | SK-MEL-28 60.5 µM | NCI-H522 29 µM | OVCAR-8 38.6 µM | CCRF-CEM 16.1 µM | MDA-N 33.7 µM | Malme-3M 23.9 µM | NCI-H460 22.3 µM | RXF 393 5.98 µM | OVCAR-4 33.8 µM | OVCAR-5 18.4 µM

CC(C)(C)[Si](C)(C)OC1/C(=C/C#N)C(n2ccc(=O)[nH]c2=O)OC1CO (configuration not stated)
inactive: 786-0 > 100 µM | SW-620 > 100 µM | NCI/ADR-RES > 100 µM | SF-295 > 100 µM | ACHN > 100 µM | SK-MEL-28 > 100 µM | NCI-H522 > 100 µM | OVCAR-8 > 100 µM | MDA-N > 100 µM | Malme-3M > 100 µM | NCI-H460 > 100 µM | DU-145 > 100 µM | RXF 393 > 100 µM | HOP-62 > 100 µM | HT-29 > 100 µM | OVCAR-4 > 100 µM | OVCAR-5 > 100 µM

CCOC(=O)C1Sc2ccccc2N=C1C (configuration not stated)
inactive: 786-0 > 100 µM | SW-620 > 100 µM | SF-295 > 100 µM | ACHN > 100 µM | SK-MEL-28 > 100 µM | NCI-H522 > 100 µM | OVCAR-8 > 100 µM | Malme-3M > 100 µM | NCI-H460 > 100 µM | RXF 393 > 100 µM | HOP-62 > 100 µM | HT-29 > 100 µM | OVCAR-4 > 100 µM | OVCAR-5 > 100 µM
